Here are results for one compound from paper PMC6108835, “Target-Based Discovery of an Inhibitor of the Regulatory Phosphatase PPP1R15B” (Cell, 2018).

Molecules are shown by their SMILES.

One data set addresses T1, R15A^325–636 (Homo sapiens, UniProt O75807).
T1 construct: made in house; host or cells: E. coli BL21-Gold (DE3) pLysS
Put plainly: eIF2α pull down with MBP-tagged R15A. Format: biochemical. To be noted: Raphin1 200 μM, P-eIF2α 1 μM. The procedure: Recombinant eIF2α was produced as described in [Ito et al. (2004)] and pull down experiments were carried out as previously described ([Carrara et al., 2017]). Amylose beads (New England BioLabs) were pre-equilibrated with interaction buffer (50 mM Tris pH 7.4, 200 mM NaCl, 0.05% Tween20). 20 μL amylose beads were incubated with purified MBP-tagged R15s (200 nM), P-eIF2α (1 μM) as appropriate, plus 200 μM Raphin1, or DMSO vehicle in a total volume of 200 μL. Input samples (5%) was removed at this step, and added to 4% SDS-Laemmli sample buffer. Beads were incubated for 10 min at 4°C with 20 rpm gentle rotation. The beads were washed 5 × 1 mL with interaction buffer, transferred to a fresh tube and finally resuspended with 50 μL 4% SDS-Laemmli sample buffer. Eluded beads were boiled and then run on 4%–12% NuPAGE Bis-Tris gels (ThermoFisher Scientific). Anti-MBP HRP (New England BioLabs (#E8038); 1:5,000) (to probe for R15s) and anti-eIF2α (AbCam (#ab26197); 1:1,000) antibodies were used for immunoblotting analyses of samples.

In a further data set the target is T2, R15B (Homo sapiens, UniProt Q5SWA1).
T2 construct: endogenous in cells; host or cells: HeLa
T2 sequence (Q5SWA1 1-713): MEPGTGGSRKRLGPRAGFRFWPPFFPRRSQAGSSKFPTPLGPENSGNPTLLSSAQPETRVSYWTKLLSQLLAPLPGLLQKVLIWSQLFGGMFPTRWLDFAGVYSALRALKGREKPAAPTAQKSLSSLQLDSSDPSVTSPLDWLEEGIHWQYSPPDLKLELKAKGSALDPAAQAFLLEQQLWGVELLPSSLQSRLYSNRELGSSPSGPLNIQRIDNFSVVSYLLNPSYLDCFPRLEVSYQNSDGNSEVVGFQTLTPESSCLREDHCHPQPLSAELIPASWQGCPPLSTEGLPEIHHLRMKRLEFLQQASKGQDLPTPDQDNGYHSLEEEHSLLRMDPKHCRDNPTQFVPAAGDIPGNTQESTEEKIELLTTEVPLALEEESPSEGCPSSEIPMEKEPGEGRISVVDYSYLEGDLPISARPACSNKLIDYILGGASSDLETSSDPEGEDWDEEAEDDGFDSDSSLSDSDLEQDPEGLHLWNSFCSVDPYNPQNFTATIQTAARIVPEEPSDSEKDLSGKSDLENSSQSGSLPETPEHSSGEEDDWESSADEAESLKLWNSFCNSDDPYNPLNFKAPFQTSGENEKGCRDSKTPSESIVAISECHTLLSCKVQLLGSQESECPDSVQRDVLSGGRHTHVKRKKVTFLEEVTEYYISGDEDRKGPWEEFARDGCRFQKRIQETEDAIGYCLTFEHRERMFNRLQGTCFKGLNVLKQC
The data set can be described thus: R15B levels on immunoblots of HeLa cell lysates. Format: cell-based. To be noted: HeLa cells, Raphin1 10 μM. The procedure:
HeLa or MEF cells (90,000 cells/mL) were plated in 12-well plates (1 mL/well). The following day cells were treated as indicated; the medium was removed, fresh medium containing compound added and incubated at 37°C for the times indicated. The time course was performed in reverse order to facilitate collecting all samples at the same time. At the end of treatment cells were washed two times with ice-cold PBS and lysed in 150 μL Laemmli Buffer. […] Proteins were transferred to the nitrocellulose membrane using the iBlot 2 system (ThermoFisher Scientific). Membrane was blocked in 5% skimmed milk for 30 min and then probed with primary antibodies followed by incubation with the appropriate horseradish peroxidase-conjugated secondary antibodies (Promega). Proteins were visualized using ECL Prime (GE Healthcare) and imaged in the Chemi-Smart 5000 (Vilber-Lourmat, France) or ChemiDoc Touch (BioRad). Bands were quantified using ImageJ (NIH, USA).
On the technique in general: Immunoblotting shows a protein as a band on a membrane.

In data set [1] the target is Adrenergic α2A (FAST-006A) receptor (Homo sapiens, UniProt P08913). Put plainly: α2-adrenergic activity in cells expressing recombinant receptor (Euroscreen). Format: cell-based. To be noted: agonist testing, also videos of mice at 10 mg/kg. The procedure: α2-adrenergic activity was measured by Euroscreen. Adrenergic α2A (FAST-006A) receptor cells grown 18 hr prior to the test in media without antibiotics were detached by gentle flushing with PBS-EDTA (5 mM EDTA), recovered by centrifugation and re-suspended in “assay buffer” (DMEM/HAM’s F12 with HEPES + 0.1% BSA protease free). Cells were incubated at RT for at least 4 hr with Coelenterazine h (Molecular Probes). Dose response curves with the reference compounds were performed before testing the compounds. For agonist testing, 50 μL of cell suspension was mixed with 50 μL of test compound or reference agonist plated in a 96-well plate. The resulting emission of light was recorded using the Hamamatsu Functional Drug Screening System 6000 (FDSS 6000). Agonist activity of test compound was expressed as a percentage of the activity of the reference agonist at its EC100 concentration.
Chain of Adrenergic α2A (FAST-006A) receptor (P08913 whole entry): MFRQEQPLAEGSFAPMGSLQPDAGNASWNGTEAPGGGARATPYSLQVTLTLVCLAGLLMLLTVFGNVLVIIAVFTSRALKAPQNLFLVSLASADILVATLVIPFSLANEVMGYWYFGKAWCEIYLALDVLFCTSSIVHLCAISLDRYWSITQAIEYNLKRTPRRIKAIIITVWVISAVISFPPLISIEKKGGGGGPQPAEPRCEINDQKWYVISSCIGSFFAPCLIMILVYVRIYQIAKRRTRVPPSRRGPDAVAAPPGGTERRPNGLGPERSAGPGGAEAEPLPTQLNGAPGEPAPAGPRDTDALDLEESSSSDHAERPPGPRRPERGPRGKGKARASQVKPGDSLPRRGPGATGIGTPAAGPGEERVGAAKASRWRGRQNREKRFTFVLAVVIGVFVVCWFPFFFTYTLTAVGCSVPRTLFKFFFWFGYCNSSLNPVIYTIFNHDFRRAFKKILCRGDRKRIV

Data set [2] is described as follows: Glucose tolerance test in wild-type mice. Format: in vivo, mouse. As to conditions: 2 mg/kg daily for 8 weeks. The procedure:
Treatment- and test-naive 4 weeks old C3H/B6 males were used. Raphin1 was administered to mice daily for 8 weeks before the test. After the overnight 14 hr starvation mice were injected intraperitoneally with D-glucose (Sigma-Aldrich) at 2 g glucose/kg body weight. Right before and at the indicated time points after the injection blood samples were collected from the tail vein and the blood glucose concentration was determined using The Accu-Chek Aviva Blood Glucose Meter (Roche).

Another data set relates to brains of wild-type mice. The data set can be described thus: Monitoring translation rates in vivo, brains of wild-type mice. Further details: species or system mouse. As to conditions: 40 mg/kg. The procedure:
3 months old treatment- and test-naive C57BL/6J males were treated as indicated. 30 min before the end of treatment mice were injected intraperitoneally with 0.75 mCi/kg radioactive label – 75% ^35S-methionine + 25% ^35S-cystine (Hartmann Analytic). At the end of treatment mice were culled by cervical dislocation, brains were extracted, fresh-frozen in liquid nitrogen and kept at −80°C until use. Tissue was homogenized and lysed in Laemmli Buffer (1 mL for 0.5 mg tissue). Lysates were boiled at 95°C for 5 min, sonicated and resolved on Bolt SDS-PAGE 4%–12% Bis-Tris gels (ThermoFisher Scientific). Gels were then stained with InstantBlue (Expedeon) and after the gels had been imaged they were transferred to a 20% ethanol, 7% acetic acid, 4% glycerol solution for 10 min. This was to prevent the gels from cracking while drying. The gels were transferred to filter paper and dried using a gel dryer. The gels were then exposed to a Storage Phosphor Screen (GE Healthcare) and analyzed by phosphorimaging using a Typhoon Imager Scanner (GE Healthcare).

T1 sequence (O75807 325-636, stated change not applied): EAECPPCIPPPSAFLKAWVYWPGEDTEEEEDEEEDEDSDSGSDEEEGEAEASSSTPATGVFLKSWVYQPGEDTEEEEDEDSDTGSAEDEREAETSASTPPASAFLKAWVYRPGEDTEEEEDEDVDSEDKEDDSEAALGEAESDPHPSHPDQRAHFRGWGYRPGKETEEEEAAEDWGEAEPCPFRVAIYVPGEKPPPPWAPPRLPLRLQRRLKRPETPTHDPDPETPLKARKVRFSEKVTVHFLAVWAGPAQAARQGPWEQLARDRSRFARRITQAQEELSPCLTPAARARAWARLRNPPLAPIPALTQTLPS

Regarding `[H]/N=C(\N)NN=Cc1cccc(Cl)c1Cl` [Raphin1, (E)-2-(2,3-dichlorobenzylidene)hydrazine-1-carboximidamide], on R15A^325–636, the “Recruitment of eIF2α to R15A” value was “no such effect”. At R15B, the R15B levels result is reported as “significantly decreased”. In addition, the α2-adrenergic activity result in data set [1] is “lacked”. Also, the “Adverse effects on glucose tolerance” value in data set [2] was “no obvious adverse effects”. For the same compound, the “Time of translation recovery after administration” value in the data set on brains of wild-type mice (wild-type brains) is around 6 h. In addition, the “Protein synthesis in the brains (in words)” value with brains of wild-type mice (wild-type mice) is “transiently reduced”.
